Among the data in patent publication US9611277B2 (Janssen Pharmaceutica NV, priority 2013, dated 2017) are Ki values, retold here.

For one experiment, the target named is rat orexin 1 receptor (Rattus norvegicus, UniProt P56718). Put plainly: Rat orexin 1 receptor radioligand binding. To be noted: rat orexin 1 receptor; averages of 2-20 runs; read-out: rOX1 Ki. A digest of the protocol:
(§1)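 Ki values derive from one-site competition IC50s corrected with the radioligand's predetermined Kd, triplicates per run, averaged over 2-20 runs. Cell homogenates (rat or human OX1R) compete against [^3H]-thiazolyl-oxadiazolyl-pyrrolidine methanone in PBS; 10 μM almorexant sets nonspecific binding; scintillation counting after washing.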

A further experiment deals with human orexin 1 receptor (Homo sapiens, UniProt O43613). Put plainly: Human orexin 1 receptor radioligand binding. To be noted: human orexin 1 receptor; averages of 2-20 runs; read-out: hOX1 Ki. A digest of the protocol: as §1
A further experiment has as its target human orexin 2 receptor (Homo sapiens (Human), UniProt O43614). Put plainly: Human orexin 2 receptor radioligand binding. To be noted: human orexin 2 receptor; averages of 2-20 runs; read-out: hOX2 Ki. A digest of the protocol: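 Ki derived from one-site competition IC50 using predetermined Kd of [3H]-EMPA, triplicate points, 2-20 runs averaged. Binding done on homogenized HEK293 cells stably expressing human orexin 2 receptor, DMSO ≤0.1%, with 10 μM almorexant defining nonspecific binding; filtered, washed, scintillation counted.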

Sequence of human orexin 2 receptor (O43614 whole entry): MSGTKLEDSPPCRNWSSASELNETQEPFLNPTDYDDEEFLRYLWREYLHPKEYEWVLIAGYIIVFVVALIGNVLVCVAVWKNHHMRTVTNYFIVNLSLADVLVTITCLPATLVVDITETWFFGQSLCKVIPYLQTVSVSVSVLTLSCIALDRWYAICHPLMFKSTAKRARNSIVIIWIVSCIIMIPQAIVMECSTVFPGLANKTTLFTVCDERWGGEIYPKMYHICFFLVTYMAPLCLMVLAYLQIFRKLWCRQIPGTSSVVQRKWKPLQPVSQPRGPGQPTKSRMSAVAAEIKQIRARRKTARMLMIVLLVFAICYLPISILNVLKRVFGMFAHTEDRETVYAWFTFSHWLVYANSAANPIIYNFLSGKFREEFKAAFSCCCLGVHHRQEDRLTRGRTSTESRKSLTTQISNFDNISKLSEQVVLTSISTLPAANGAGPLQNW

One may read the Ki as the equilibrium dissociation constant of an inhibitor or competing ligand from its target. Take `O=C(c1cccc(F)c1-c1ncccn1)N1C[C@H]2C[C@@H](Oc3cc(C(F)(F)F)ccn3)[C@@H]1C2` [Example 95, (3-fluoro-2-(pyrimidin-2-yl)phenyl)((1S,4R,6R)-6-((4-(trifluoromethyl)pyridin-2-yl)oxy)-2-azabicyclo[2.2.1]heptan-2-yl)methanone]: the Ki came out at 29 nM on rat orexin 1 receptor, 37 nM on human orexin 1 receptor and 137 nM at human orexin 2 receptor.

`O=C(c1ccccc1-n1nccn1)N1C[C@H]2C[C@@H](Nc3ncc(C(F)(F)F)cn3)[C@@H]1C2` [Example 60, (2-(2H-1,2,3-triazol-2-yl)phenyl)((1S,4S,6R)-6-((5-(trifluoromethyl)pyrimidin-2-yl)amino)-2-azabicyclo[2.2.1]heptan-2-yl)methanone]: the inhibitory constant (Ki) was determined as 20 nM at rat orexin 1 receptor, 12 nM on human orexin 1 receptor and 617 nM at human orexin 2 receptor.

With `Cc1ccc(N[C@@H]2C[C@H]3C[C@@H]2N(C(=O)c2cccc(F)c2-c2ncccn2)C3)cc1` [Example 184, (3-fluoro-2-(pyrimidin-2-yl)phenyl)((1S,4S,6R)-6-(p-tolylamino)-2-azabicyclo[2.2.1]heptan-2-yl)methanone], the Ki was determined as 13 nM at rat orexin 1 receptor, 15 nM on human orexin 1 receptor and 337 nM on human orexin 2 receptor.

As for `O=C(c1ccccc1-c1ncccn1)N1C[C@@H]2CC[C@H]1[C@H](Nc1cnc(C(F)(F)F)cn1)C2` [Example 280, (2-(pyrimidin-2-yl)phenyl)((1S,4R,6R)-6-((5-(trifluoromethyl)pyrazin-2-yl)amino)-2-azabicyclo[2.2.2]octan-2-yl)methanone], the Ki was 7 nM at rat orexin 1 receptor, 4 nM at human orexin 1 receptor and 189 nM on human orexin 2 receptor.

With `O=C(c1c(F)cccc1-c1ncccn1)N1C[C@H]2C[C@@H](Nc3ncc(Cl)cn3)[C@@H]1C2` [Example 239, ((1S,4S,6R)-6-((5-chloropyrimidin-2-yl)amino)-2-azabicyclo[2.2.1]heptan-2-yl)(2-fluoro-6-(pyrimidin-2-yl)phenyl)methanone], the figures for the Ki at rat orexin 1 receptor, on human orexin 1 receptor and on human orexin 2 receptor were 23 nM, 41 nM and 726 nM, respectively.

In the case of `O=C(c1ccccc1-n1nccn1)N1C[C@H]2C[C@@H](Oc3ncc(Cl)cn3)[C@@H]1C2` [Example 300], the Ki at rat orexin 1 receptor worked out at 92 nM; at human orexin 1 receptor it was 112 nM; on human orexin 2 receptor, 3700 nM.

Regarding `O=C(c1cccc(F)c1-n1nccn1)N1C[C@H]2C[C@@H](Oc3ccc(Br)cn3)[C@@H]1C2` [Example 106, ((1S,4R,6R)-6-((5-bromopyridin-2-yl)oxy)-2-azabicyclo[2.2.1]heptan-2-yl)(3-fluoro-2-(2H-1,2,3-triazol-2-yl)phenyl)methanone], the Ki on rat orexin 1 receptor was 3 nM; on human orexin 1 receptor, 4 nM; at human orexin 2 receptor, 436 nM.

As to `O=C(c1ccc(F)cc1-n1nccn1)N1C[C@H]2C[C@@H](Nc3cnc(C(F)(F)F)cn3)[C@@H]1C2` [Example 193, (4-fluoro-2-(2H-1,2,3-triazol-2-yl)phenyl)((1S,4S,6R)-6-((5-(trifluoromethyl)pyrazin-2-yl)amino)-2-azabicyclo[2.2.1]heptan-2-yl)methanone], the results for the inhibition constant (Ki) at rat orexin 1 receptor, on human orexin 1 receptor and at human orexin 2 receptor were 40 nM, 65 nM and 2000 nM, respectively.

In the case of `Cc1cccc(C(=O)N2CC3CCC2C(Nc2cnc(C(F)(F)F)cn2)C3)c1-n1nccn1` (racemic) [Example 256, (R/S)-(3-methyl-2-(2H-1,2,3-triazol-2-yl)phenyl)(6-((5-(trifluoromethyl)pyrazin-2-yl)amino)-2-azabicyclo[2.2.2]octan-2-yl)methanone], the values for the Ki on rat orexin 1 receptor, on human orexin 1 receptor and at human orexin 2 receptor were 20 nM, 10 nM and 348 nM, respectively.

On to `Cc1ccc(-n2nccn2)c(C(=O)N2C[C@H]3C[C@@H](Oc4ccc(Cl)cn4)[C@@H]2C3)n1` [Example 114, ((1S,4R,6R)-6-((5-chloropyridin-2-yl)oxy)-2-azabicyclo[2.2.1]heptan-2-yl)(6-methyl-3-(2H-1,2,3-triazol-2-yl)pyridin-2-yl)methanone], for which the inhibitory constant (Ki) on rat orexin 1 receptor was determined as 11 nM; at human orexin 1 receptor, 23 nM; at human orexin 2 receptor, 668 nM.
